Results published in patent US7198775B2, “Detectably labeled porphyrin compound for identifying the sentinel lymph node” (The Trustees of Columbia University in the City of New York, priority 2000, dated 2007).

Experiments:
[1] = test system: lymph nodes; test: dye tested on rabbits for staining of the lymph nodes; type: in vivo
Source text: The present invention in one embodiment therefore acts as a dye that stains the lymphatic channels of the body for identification of the sentinel lymph node.

[2] = rats bearing tumors; cited from earlier work

Tc-99m Phthalocyanine Tetrasulfonate [Tc-99m-PCTS]
staining of the lymph nodes [1]: successfully shown to stain the lymph nodes

^99Tc-labeled-tetrasulfophtalocyanine [[^99Tc] TSPC]
in vivo stability of the complex [2]: absence of ^99Tc accumulation in the thyroid and the stomach | tissue distribution (accumulation of most of the product) [2]: accumulated in the liver, kidneys, ovaries, and uterus | tumor uptake [2]: occurred mainly in the exterior cell layers
